# What was measured:
# Test in all cases: relative viability (nuclei count vs DMSO), 5 days (fraction); higher = more cells survive
# Tosedostat + Luminespib = compound: CC(C)C[C@@H](C(=O)N[C@H](C(=O)OC1CCCC1)c1ccccc1)[C@H](O)C(=O)NO [Tosedostat] + CCNC(=O)c1noc(-c2cc(C(C)C)c(O)cc2O)c1-c1ccc(CN2CCOCC2)cc1 [Luminespib] (partner 0.01 µM)
# Procedure, shortened: (§1)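 One day after seeding in 1536-well plates, lung cancer cell lines were dosed by pin tool. Dosing was either single-drug or a fixed anchor-drug dose plus five library-drug doses (not always all listed) in √10 steps. After 5 days, nuclei were stained in one fix-and-stain step and counted on 4× images, and relative viability is the nuclei count of treated wells over that of vehicle wells, given as the median of duplicate plates.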
# Tosedostat + Olaparib = compound: CC(C)C[C@@H](C(=O)N[C@H](C(=O)OC1CCCC1)c1ccccc1)[C@H](O)C(=O)NO [Tosedostat] + O=C(c1cc(Cc2n[nH]c(=O)c3ccccc23)ccc1F)N1CCN(C(=O)C2CC2)CC1 [Olaparib] (partner 8 µM)
# Procedure, shortened: as §1
# [1] = compound: CC1=NN=C(O1)C2=NN=C(C=C2)N3CCC(CC3)OC4=C(C=CC(=C4)F)Cl + CS(=O)(=O)N1CCN(Cc2cc3nc(-c4cccc5[nH]ncc45)nc(N4CCOCC4)c3s2)CC1 [Pictilisib] (partner 1 µM)
# Procedure, shortened: as §1
# [2] = compound: CC1=NN=C(O1)C2=NN=C(C=C2)N3CCC(CC3)OC4=C(C=CC(=C4)F)Cl + NC(=O)Nc1cc(-c2cccc(F)c2)sc1C(=O)N[C@H]1CCCNC1 [AZD7762] (partner 0.2 µM)
# Procedure, shortened: as §1
cell line,measurement,setting,value
NCI-H650,relative viability,Tosedostat + Luminespib; first compound 0.02 µM,0.952
same,relative viability,Tosedostat + Luminespib; first compound 0.06325 µM,0.773
same,relative viability,Tosedostat + Luminespib; first compound 0.2 µM,0.834
same,relative viability,Tosedostat + Luminespib; first compound 0.6325 µM,0.714
same,relative viability,Tosedostat + Luminespib; first compound 2 µM,0.755
same,relative viability,Tosedostat + Olaparib; first compound 0.02 µM,0.368
same,relative viability,Tosedostat + Olaparib; first compound 0.06325 µM,0.362
same,relative viability,Tosedostat + Olaparib; first compound 0.2 µM,0.381
same,relative viability,Tosedostat + Olaparib; first compound 0.6325 µM,0.271
same,relative viability,Tosedostat + Olaparib; first compound 2 µM,0.219
same,relative viability,[1]; first compound 0.253 µM,0.869
same,relative viability,[1]; first compound 0.8 µM,0.775
same,relative viability,[1]; first compound 2.53 µM,0.47
same,relative viability,[1]; first compound 8 µM,0.889
same,relative viability,[2]; first compound 0.253 µM,0.943
same,relative viability,[2]; first compound 0.8 µM,0.642
same,relative viability,[2]; first compound 2.53 µM,0.985
same,relative viability,[2]; first compound 8 µM,0.882
EPLC-272H,relative viability,Tosedostat + Luminespib; first compound 0.02 µM,0.246
same,relative viability,Tosedostat + Luminespib; first compound 0.06325 µM,0.265
same,relative viability,Tosedostat + Luminespib; first compound 0.2 µM,0.278
same,relative viability,Tosedostat + Luminespib; first compound 0.6325 µM,0.285
same,relative viability,Tosedostat + Luminespib; first compound 2 µM,0.225
same,relative viability,Tosedostat + Olaparib; first compound 0.02 µM,0.879
same,relative viability,Tosedostat + Olaparib; first compound 0.06325 µM,0.711
same,relative viability,Tosedostat + Olaparib; first compound 0.2 µM,0.557
same,relative viability,Tosedostat + Olaparib; first compound 0.6325 µM,0.471
same,relative viability,Tosedostat + Olaparib; first compound 2 µM,0.293
same,relative viability,[1]; first compound 0.253 µM,0.399
same,relative viability,[1]; first compound 2.53 µM,0.41
same,relative viability,[1]; first compound 8 µM,0.309
same,relative viability,[2]; first compound 0.253 µM,0.236
same,relative viability,[2]; first compound 0.8 µM,0.369
same,relative viability,[2]; first compound 2.53 µM,0.268
same,relative viability,[2]; first compound 8 µM,0.197

# Source: the supplement of paper PMC10307832
